Source: patent US20100160431A1, “Methods and Compositions for the Treatment of Viral Infections” (priority 2006, published 2010)

Assays:
[1] = in vivo; cited from earlier work
[2] = Time to steady state concentration with extended release amantadine or rimantadine; settings: patient with influenza A; 100 mg or more once daily; formulated as in Example 5
[3] = Release profile of amantadine and oseltamivir combination (USP II Paddle system, water); assay type: physicochemical
Excerpt: The cumulative fraction is the amount of drug substance released from the formulation matrix to the serum or gut environment (e.g., U.S. Pat. No. 4,839,177) or as measured with a USP II Paddle system using water as the dissolution medium.

[4] = cited from earlier work; for Human PK T½ / Tmax: humans

Row | SMILES | Dose Dependent Toxicity [1] | time to therapeutically effective steady state serum concentration [2] | cum. fraction ([3]; Time 1) | cum. fraction ([3]; Time 2) | cum. fraction ([3]; Time 4) | cum. fraction ([3]; Time 8) | cum. fraction ([3]; Time 12) | cum. fraction ([3]; Time 16) | cum. fraction ([3]; Time 20) | cum. fraction ([3]; Time 24) | T½ ([4]; head of Table 4) | Human PK T½ [4] [h] | Tmax [4] [h]
1 | CC(N)C12CC3CC(CC(C3)C1)C2 (centres unmarked) [Rimantadine, rimantadine] | Insomnia | three | – | – | – | – | – | – | – | – | – | – | –
2 | CCOC(=O)C1=C[C@@H](OC(CC)CC)[C@H](NC(C)=O)[C@@H](N)C1 [oseltamivir/TAMIFLU ®, oseltamivir] | – | – | 0.1 | 0.15 | 0.2 | 0.35 | 0.5 | 0.65 | 0.8 | 1 | T½ = 3 hrs | 3 | 3 to 4
3 | CC(=O)N[C@H]1[C@H]([C@H](O)[C@H](O)CO)OC(C(=O)O)=C[C@@H]1NC(=N)N [zanamivir/RELENZA ®, zanamivir] | – | – | – | – | – | – | – | – | – | – | – | 2.5 to 5.1 | 1 to 2
4 | NC12CC3CC(CC(C3)C1)C2 [Amantadine, amantadine] | – | – | 0.2 | 0.3 | 0.4 | 0.5 | 0.6 | 0.7 | 0.8 | 0.9 | – | – | –
